# From publication PMC8474115 (Journal of Medicinal Chemistry, 2021)
# Counter-ions that a name gives are not always drawn. Like-named read-outs stand apart in the source and are kept apart here.
# What was measured:
# COX-1 = molecular target: T1, COX-1 (Homo sapiens, UniProt P23219); test: Eurofins SafetyScreen panel; type: biochemical
# T1 construct: Eurofins
# MAO-A = molecular target: T2, MAO-A (Homo sapiens, UniProt P21397); test: Eurofins SafetyScreen panel; type: biochemical
# T2 construct: Eurofins
# T2 sequence (P21397 whole entry): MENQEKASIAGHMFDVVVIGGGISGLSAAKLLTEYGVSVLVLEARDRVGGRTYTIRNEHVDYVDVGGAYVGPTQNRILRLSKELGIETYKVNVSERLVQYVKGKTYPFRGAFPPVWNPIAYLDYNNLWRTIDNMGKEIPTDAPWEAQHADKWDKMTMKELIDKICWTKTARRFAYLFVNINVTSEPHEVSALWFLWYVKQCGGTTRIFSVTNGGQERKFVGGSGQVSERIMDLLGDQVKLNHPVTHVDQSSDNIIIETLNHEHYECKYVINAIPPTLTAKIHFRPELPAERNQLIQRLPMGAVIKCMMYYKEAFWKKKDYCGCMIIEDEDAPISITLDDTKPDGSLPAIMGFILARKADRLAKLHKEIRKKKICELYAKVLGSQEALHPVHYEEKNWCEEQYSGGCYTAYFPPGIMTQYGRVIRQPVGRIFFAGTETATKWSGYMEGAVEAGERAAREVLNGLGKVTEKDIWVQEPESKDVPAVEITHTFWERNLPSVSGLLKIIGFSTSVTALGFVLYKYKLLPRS
# Adenosine A1 = molecular target: T3, Adenosine A1 (Homo sapiens, UniProt P30542); test: Eurofins SafetyScreen panel; type: binding
# T3 construct: Eurofins (contract screening, SafetyScreen panel) PP223
# Adenosine A2A = molecular target: T4, Adenosine A2A (Homo sapiens, UniProt P29274); test: Eurofins SafetyScreen panel; type: binding
# T4 construct: Eurofins (contract screening, SafetyScreen panel) PP223
# T4 sequence (P29274 whole entry): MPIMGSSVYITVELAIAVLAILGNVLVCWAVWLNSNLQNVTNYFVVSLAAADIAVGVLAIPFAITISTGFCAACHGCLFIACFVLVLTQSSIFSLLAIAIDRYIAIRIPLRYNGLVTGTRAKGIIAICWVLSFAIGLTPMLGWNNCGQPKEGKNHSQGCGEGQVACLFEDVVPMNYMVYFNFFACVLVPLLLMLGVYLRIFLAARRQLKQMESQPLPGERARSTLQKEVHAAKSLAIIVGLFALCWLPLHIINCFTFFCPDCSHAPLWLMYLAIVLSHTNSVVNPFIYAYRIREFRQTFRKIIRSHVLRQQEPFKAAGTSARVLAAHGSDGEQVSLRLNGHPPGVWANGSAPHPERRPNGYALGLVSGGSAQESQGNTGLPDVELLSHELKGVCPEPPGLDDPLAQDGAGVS
# Adrenergic α1B = molecular target: T5, Adrenergic α1B (Rattus norvegicus, UniProt P15823); test: Eurofins SafetyScreen panel; type: binding
# T5 construct: Eurofins (contract screening, SafetyScreen panel) PP223
# T5 sequence (P15823 whole entry): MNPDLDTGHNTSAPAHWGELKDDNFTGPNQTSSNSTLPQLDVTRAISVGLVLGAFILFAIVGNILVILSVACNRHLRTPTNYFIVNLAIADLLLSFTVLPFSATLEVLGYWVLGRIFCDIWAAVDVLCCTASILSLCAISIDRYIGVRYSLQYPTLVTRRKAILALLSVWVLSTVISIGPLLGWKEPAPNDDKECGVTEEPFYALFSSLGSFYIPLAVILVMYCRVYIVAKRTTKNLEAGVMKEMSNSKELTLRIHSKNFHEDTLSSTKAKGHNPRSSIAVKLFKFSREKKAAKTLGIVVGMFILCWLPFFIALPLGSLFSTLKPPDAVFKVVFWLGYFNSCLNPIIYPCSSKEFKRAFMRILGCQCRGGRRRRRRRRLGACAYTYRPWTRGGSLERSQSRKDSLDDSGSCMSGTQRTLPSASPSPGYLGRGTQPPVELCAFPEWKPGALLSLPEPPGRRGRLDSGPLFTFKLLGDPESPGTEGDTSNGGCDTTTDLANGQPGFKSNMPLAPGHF
# Adrenergic β2 = molecular target: T6, Adrenergic β2 (Homo sapiens, UniProt P07550); test: Eurofins SafetyScreen panel; type: binding
# T6 construct: Eurofins (contract screening, SafetyScreen panel) PP223
# T6 sequence (P07550 whole entry): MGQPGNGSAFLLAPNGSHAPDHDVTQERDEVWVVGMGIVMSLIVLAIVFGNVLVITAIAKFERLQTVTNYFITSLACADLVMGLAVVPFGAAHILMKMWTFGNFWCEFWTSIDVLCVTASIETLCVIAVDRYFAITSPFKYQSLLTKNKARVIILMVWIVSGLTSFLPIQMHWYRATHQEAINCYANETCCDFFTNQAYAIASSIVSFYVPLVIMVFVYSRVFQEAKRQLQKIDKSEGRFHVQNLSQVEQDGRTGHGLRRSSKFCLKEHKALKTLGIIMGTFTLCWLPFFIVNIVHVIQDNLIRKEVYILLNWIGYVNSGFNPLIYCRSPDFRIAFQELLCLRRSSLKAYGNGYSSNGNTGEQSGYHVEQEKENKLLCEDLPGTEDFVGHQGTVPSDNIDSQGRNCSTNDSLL
# Angiotensin AT1 = molecular target: T7, Angiotensin AT1 (Homo sapiens, UniProt P30556); test: Eurofins SafetyScreen panel; type: binding
# T7 construct: Eurofins (contract screening, SafetyScreen panel) PP223
# Cannabinoid CB1 = molecular target: T8, Cannabinoid CB1 (Homo sapiens, UniProt P21554); test: Eurofins SafetyScreen panel; type: binding
# T8 construct: purchased Eurofins (Panlabs) SafetyScreen87 Panel
# Cannabinoid CB2 = molecular target: T9, Cannabinoid CB2 (Homo sapiens, UniProt P34972); test: Eurofins SafetyScreen panel; type: binding
# T9 construct: purchased Eurofins (Panlabs) SafetyScreen87 Panel
# Chemokine CCR1 = molecular target: T10, Chemokine CCR1 (Homo sapiens, UniProt P32246); test: Eurofins SafetyScreen panel; type: binding
# T10 construct: purchased Eurofins (Panlabs) SafetyScreen87 Panel
# T10 sequence (P32246 whole entry): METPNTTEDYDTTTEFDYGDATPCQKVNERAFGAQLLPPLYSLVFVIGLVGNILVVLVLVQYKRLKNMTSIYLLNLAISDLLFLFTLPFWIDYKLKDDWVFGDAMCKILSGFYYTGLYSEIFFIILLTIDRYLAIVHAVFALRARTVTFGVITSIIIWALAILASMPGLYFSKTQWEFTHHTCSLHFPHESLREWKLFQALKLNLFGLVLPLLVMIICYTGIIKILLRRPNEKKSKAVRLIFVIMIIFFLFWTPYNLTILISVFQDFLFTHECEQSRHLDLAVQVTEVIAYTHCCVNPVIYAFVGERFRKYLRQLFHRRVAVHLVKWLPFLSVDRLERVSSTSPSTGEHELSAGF
# Melanocortin MC4 = molecular target: T11, Melanocortin MC4 (Homo sapiens, UniProt P32245); test: Eurofins SafetyScreen panel; type: binding
# T11 construct: purchased Eurofins (Panlabs) SafetyScreen87 Panel
# Muscarinic M2 = molecular target: T12, Muscarinic M2 (Homo sapiens, UniProt P08172); test: Eurofins SafetyScreen panel; type: binding
# T12 construct: Eurofins (contract screening, SafetyScreen panel) PP223
# T12 sequence (P08172 whole entry): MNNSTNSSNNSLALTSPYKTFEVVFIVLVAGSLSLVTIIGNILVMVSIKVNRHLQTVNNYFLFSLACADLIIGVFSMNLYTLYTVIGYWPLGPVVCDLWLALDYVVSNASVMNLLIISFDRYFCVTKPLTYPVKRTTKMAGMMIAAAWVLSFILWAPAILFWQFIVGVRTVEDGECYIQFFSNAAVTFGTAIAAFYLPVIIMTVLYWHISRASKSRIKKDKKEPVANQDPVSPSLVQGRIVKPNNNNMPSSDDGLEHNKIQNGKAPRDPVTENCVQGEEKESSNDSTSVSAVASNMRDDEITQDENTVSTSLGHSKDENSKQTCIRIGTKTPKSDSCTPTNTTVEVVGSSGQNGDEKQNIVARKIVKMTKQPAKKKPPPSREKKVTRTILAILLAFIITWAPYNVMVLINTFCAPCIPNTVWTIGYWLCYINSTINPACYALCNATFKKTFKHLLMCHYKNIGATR
# Opiate μ (OP3, MOP) = molecular target: T13, Opiate μ (OP3, MOP) (Homo sapiens, UniProt P35372); test: Eurofins SafetyScreen panel; type: binding
# T13 construct: Eurofins (contract assay)
# T13 sequence (P35372 whole entry): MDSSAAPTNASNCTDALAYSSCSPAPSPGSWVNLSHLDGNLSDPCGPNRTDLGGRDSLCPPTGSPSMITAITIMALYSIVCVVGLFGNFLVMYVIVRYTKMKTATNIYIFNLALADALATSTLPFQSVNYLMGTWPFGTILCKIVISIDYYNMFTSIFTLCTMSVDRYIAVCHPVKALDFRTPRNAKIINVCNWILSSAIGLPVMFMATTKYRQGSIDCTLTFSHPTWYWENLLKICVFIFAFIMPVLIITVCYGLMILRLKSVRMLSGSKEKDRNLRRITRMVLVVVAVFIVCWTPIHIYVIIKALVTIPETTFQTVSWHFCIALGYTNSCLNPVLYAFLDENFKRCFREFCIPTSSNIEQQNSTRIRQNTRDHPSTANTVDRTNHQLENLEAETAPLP
# [1] = molecular target: T14, Platelet Activating Factor (PAF) (Homo sapiens, UniProt P25105); test: Eurofins SafetyScreen panel; type: binding
# T14 construct: Eurofins (contract assay)
# Serotonin 5-HT1A = molecular target: T15, Serotonin 5-HT1A (Homo sapiens, UniProt P08908); test: Eurofins SafetyScreen panel; type: binding
# T15 construct: Eurofins (contract assay)
# T15 sequence (P08908 1-422): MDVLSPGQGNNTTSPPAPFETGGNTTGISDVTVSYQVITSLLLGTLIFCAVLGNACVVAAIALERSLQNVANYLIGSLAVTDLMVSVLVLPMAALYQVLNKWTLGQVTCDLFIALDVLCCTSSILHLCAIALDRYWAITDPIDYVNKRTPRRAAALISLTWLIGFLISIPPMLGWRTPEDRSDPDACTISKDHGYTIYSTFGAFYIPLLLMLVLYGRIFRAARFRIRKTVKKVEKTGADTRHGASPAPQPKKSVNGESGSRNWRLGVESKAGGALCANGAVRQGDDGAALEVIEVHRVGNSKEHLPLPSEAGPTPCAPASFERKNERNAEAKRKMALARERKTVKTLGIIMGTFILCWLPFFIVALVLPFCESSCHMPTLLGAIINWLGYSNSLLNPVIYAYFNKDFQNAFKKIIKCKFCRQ
# Serotonin 5-HT2C = molecular target: T16, Serotonin 5-HT2C (Homo sapiens, UniProt P28335); test: Eurofins SafetyScreen panel; type: binding
# T16 construct: Eurofins (contract assay)
# T16 sequence (P28335 33-458): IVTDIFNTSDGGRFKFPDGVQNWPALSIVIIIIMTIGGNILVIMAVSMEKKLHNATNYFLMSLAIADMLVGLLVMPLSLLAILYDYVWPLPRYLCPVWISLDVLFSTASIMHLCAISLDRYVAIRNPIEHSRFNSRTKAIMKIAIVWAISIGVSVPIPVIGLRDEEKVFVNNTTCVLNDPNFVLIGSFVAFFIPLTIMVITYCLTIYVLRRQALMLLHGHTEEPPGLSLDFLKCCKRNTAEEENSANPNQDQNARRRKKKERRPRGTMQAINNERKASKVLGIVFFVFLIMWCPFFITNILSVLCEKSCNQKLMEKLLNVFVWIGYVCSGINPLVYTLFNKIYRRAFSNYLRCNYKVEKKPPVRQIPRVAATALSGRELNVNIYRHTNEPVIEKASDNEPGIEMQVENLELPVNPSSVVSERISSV
# Serotonin 5-HT7 = molecular target: T17, Serotonin 5-HT7 (Homo sapiens, UniProt P34969); test: Eurofins SafetyScreen panel; type: binding
# T17 construct: Eurofins (contract assay) 272320
# T17 sequence (P34969 whole entry): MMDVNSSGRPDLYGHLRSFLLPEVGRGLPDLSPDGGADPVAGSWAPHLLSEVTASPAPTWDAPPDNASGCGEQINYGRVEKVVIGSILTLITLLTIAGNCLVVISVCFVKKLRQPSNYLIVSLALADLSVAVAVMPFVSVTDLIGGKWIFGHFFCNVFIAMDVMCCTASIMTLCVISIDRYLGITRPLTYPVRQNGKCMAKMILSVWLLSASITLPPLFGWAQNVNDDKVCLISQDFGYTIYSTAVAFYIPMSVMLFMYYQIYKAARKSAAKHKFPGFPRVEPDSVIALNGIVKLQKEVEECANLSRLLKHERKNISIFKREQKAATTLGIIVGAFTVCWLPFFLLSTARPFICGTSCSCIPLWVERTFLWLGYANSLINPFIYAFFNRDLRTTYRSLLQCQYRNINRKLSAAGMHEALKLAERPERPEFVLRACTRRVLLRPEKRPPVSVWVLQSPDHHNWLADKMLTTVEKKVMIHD
# Sigma σ1 = molecular target: T18, Sigma σ1 (Homo sapiens, UniProt Q99720); test: Eurofins SafetyScreen panel; type: binding
# T18 construct: Eurofins (contract assay) 278110
# T18 sequence (Q99720 whole entry): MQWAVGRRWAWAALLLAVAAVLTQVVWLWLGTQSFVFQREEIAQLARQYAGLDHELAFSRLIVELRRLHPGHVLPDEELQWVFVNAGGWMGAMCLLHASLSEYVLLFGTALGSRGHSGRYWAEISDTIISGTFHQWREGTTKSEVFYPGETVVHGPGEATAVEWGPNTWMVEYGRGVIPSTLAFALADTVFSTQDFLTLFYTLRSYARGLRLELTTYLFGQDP
# [2] = molecular target: T19, Norepinephrine Transporter (NET) (Homo sapiens, UniProt P23975); test: Eurofins SafetyScreen panel; type: binding
# T19 construct: Eurofins (contract screening, SafetyScreen panel) PP223
# T19 sequence (P23975 whole entry): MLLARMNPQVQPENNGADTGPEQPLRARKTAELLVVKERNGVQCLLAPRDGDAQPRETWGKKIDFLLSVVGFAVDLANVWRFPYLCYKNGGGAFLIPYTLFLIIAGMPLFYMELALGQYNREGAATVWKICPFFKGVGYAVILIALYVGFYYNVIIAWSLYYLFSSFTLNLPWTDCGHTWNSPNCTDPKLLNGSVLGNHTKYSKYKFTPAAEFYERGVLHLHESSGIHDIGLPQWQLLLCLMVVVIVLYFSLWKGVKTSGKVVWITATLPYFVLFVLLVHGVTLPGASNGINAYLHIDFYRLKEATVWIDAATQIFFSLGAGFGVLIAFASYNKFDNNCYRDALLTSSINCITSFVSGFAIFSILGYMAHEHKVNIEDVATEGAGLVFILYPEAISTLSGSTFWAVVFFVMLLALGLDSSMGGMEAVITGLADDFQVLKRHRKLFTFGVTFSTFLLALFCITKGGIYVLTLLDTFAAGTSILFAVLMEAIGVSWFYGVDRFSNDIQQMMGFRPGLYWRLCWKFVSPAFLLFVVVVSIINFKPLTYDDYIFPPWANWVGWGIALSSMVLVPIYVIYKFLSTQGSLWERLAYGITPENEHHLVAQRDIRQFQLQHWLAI
# [3] = molecular target: T20, Serotonin Transporter (SERT) (Homo sapiens, UniProt P31645); test: Eurofins SafetyScreen panel; type: binding
# T20 construct: Eurofins (contract screening, SafetyScreen panel) PP223
# Vasopressin V1A = molecular target: T21, Vasopressin V1A (Homo sapiens, UniProt P37288); test: Eurofins SafetyScreen panel; type: binding
# T21 construct: Eurofins (contract screening, SafetyScreen panel) PP223
# T21 sequence (P37288 whole entry): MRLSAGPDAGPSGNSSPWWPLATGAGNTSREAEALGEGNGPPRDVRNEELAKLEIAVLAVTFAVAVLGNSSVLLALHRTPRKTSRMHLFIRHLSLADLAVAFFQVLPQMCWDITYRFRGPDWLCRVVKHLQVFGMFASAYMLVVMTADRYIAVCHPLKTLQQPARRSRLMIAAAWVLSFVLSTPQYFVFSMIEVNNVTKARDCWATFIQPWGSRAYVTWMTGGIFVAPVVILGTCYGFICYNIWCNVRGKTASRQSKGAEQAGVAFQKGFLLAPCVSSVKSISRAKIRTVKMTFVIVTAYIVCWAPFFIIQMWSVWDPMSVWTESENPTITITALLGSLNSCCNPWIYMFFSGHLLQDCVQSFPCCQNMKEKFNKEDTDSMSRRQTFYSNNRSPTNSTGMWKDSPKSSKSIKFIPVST
# Potassium Channel [hERG] = Potassium Channel [hERG] (Homo sapiens, UniProt Q12809); test: Eurofins SafetyScreen panel
# CYP2D6 = CYP2D6 (Homo sapiens, UniProt P10635); test: Cytochrome P450 inhibition (Eurofins); details: at 10 μM; listed as 17, 10 µM
# [4] = read-out: %inh, 10 μM, additional batch
compound,measurement,setting,value
"O=S(=O)(c1cccc(F)c1)n1ccc2c(N3CCNCC3)nc3ccccc3c21 [FPPQ, 1-[(3-Fluorophenyl)sulfonyl]-4-(piperazin-1-yl)-1H-pyrrolo[3,2-c]quinoline dihydrochloride]",inhibition at 10 µM,COX-1,-6%
same,inhibition at 10 µM,MAO-A,12%
same,inhibition at 10 µM,Adenosine A1,29%
same,inhibition at 10 µM,Adenosine A2A,1%
same,inhibition at 10 µM,Adrenergic α1B,29%
same,IC50,Adrenergic β2,0.12 µM
same,Ki,Adrenergic β2,0.085 µM
same,inhibition at 0.01 µM,Adrenergic β2; 10 nM,9%
same,inhibition at 0.1 µM,Adrenergic β2; 0.1 μM,43%
same,inhibition at 1 µM,Adrenergic β2; 1 μM,93%
same,inhibition at 10 µM,Adrenergic β2,103%
same,inhibition at 10 µM,Adrenergic β2; additional batch,99%
same,inhibition at 10 µM,Angiotensin AT1,-4%
same,inhibition at 10 µM,Cannabinoid CB1,35%
same,inhibition at 10 µM,Cannabinoid CB2,-21%
same,inhibition at 10 µM,Chemokine CCR1,-6%
same,inhibition at 10 µM,Melanocortin MC4,27%
same,inhibition at 10 µM,Muscarinic M2,5%
same,IC50,"Opiate μ (OP3, MOP)",7.08 µM
same,inhibition at 0.1 µM,"Opiate μ (OP3, MOP); read-out: %inh, 0.1 μM",3%
same,inhibition at 10 µM,"Opiate μ (OP3, MOP); read-out: %inh, 10 μM",59%
same,inhibition at 10 µM,"Opiate μ (OP3, MOP); [4]",61%
same,inhibition at 100 µM,"Opiate μ (OP3, MOP); read-out: %inh, 100 μM",97%
same,inhibition at 10 µM,[1],14%
same,IC50,Serotonin 5-HT1A,0.86 µM
same,Ki,Serotonin 5-HT1A,0.49 µM
same,inhibition at 0.01 µM,"Serotonin 5-HT1A; read-out: %inh, 10 nM",-2%
same,inhibition at 0.1 µM,"Serotonin 5-HT1A; read-out: %inh, 0.1 μM",16%
same,inhibition at 1 µM,"Serotonin 5-HT1A; read-out: %inh, 1 μM",53%
same,inhibition at 10 µM,"Serotonin 5-HT1A; read-out: %inh, 10 μM",87%
same,inhibition at 10 µM,Serotonin 5-HT1A; [4],91%
same,IC50,Serotonin 5-HT2C,1.58 µM
same,Ki,Serotonin 5-HT2C,0.83 µM
same,inhibition at 0.01 µM,"Serotonin 5-HT2C; read-out: %inh, 10 nM, additional batch",-5%
same,inhibition at 0.1 µM,"Serotonin 5-HT2C; read-out: %inh, 0.1 μM",-6%
same,inhibition at 1 µM,"Serotonin 5-HT2C; read-out: %inh, 1 μM",32%
same,inhibition at 10 µM,"Serotonin 5-HT2C; read-out: %inh, 10 μM",94%
same,inhibition at 10 µM,Serotonin 5-HT2C; [4],93%
same,inhibition at 0.1 µM,"Serotonin 5-HT7; read-out: %inh, 0.1 μM",-1%
same,inhibition at 1 µM,"Serotonin 5-HT7; read-out: %inh, 1 μM",21%
same,inhibition at 10 µM,"Serotonin 5-HT7; read-out: %inh, 10 μM",65%
same,inhibition at 10 µM,Serotonin 5-HT7; [4],67%
same,inhibition at 100 µM,"Serotonin 5-HT7; read-out: %inh, 100 μM",93%
same,IC50,Sigma σ1,8.33 µM
same,Ki,Sigma σ1,3.5 µM
same,inhibition at 0.1 µM,Sigma σ1; read-out: %inh,7%
same,inhibition at 1 µM,Sigma σ1; read-out: %inh,18%
same,inhibition at 10 µM,Sigma σ1; read-out: %inh,51%
same,inhibition at 100 µM,Sigma σ1; read-out: %inh,89%
same,IC50,[2],1.25 µM
same,Ki,[2],1.24 µM
same,inhibition at 0.01 µM,"[2]; read-out: %inh, 10 nM",1%
same,inhibition at 0.1 µM,"[2]; read-out: %inh, 0.1 μM",8%
same,inhibition at 1 µM,"[2]; read-out: %inh, 1 μM",42%
same,inhibition at 10 µM,"[2]; read-out: %inh, 10 μM",94%
same,inhibition at 10 µM,[2]; [4],96%
same,inhibition at 10 µM,[3],18%
same,inhibition at 10 µM,Vasopressin V1A,-18%
same,Ki,Potassium Channel [hERG],0.94 µM
same,cytochrome P450 inhibition 2D6,CYP2D6,< 25% inh at 10 uM
